# From US6699849B1, “Cyclodextrin complexes of benzodiazepines” (Cyclops, ehf., priority 1998, dated 2004)
# Like-named read-outs stand apart in the source and are kept apart here.
# Experiments:
# [1] = Effect of pH and cyclodextrins on the fraction of the open form (diazepine ring-opening) of benzodiazepines; format: physicochemical
# Procedure: The cyclodextrin concentration was 10% (w/v) and the benzodiazepine concentration was 1×10^−4 M. The concentration of the closed form was determined immediately after dissolving the benzodiazepine in the aqueous cyclodextrin solution and again 24 hours later (i.e. after equilibration at 23° C.). Preliminary experiments had shown that equilibrium between the closed and the open form was attained within 3 hours at 23° C.
# [2] = Solubility of midazolam versus pH in buffer, 10% HPβCD and 10% HPβCD + 0.10% HPMC; format: physicochemical; conditions: 10% (w/v) HPβCD + 0.10% (w/v) HPMC, FIG. 3
# Procedure: Midazolam is a water-insoluble weak base (pKa 6.2) which forms a somewhat water-soluble cation in acidic solution. Solubility (S) of midazolam at several different pH levels was determined in: a) pure aqueous buffer solutions (i.e. without HPβCD and HPMC); b) aqueous buffer solutions containing 10% (w/v) 2-hydroxypropyl-β-cyclodextrin (HPβCD) of molar substitution (MS)=0.3; and c) aqueous solutions containing 10% (w/v) 2-hydroxypropyl-β-cyclodextrin (HPβCD) of molar substitution (MS)=0.3 and 0.10% (w/v) hydroxypropyl methylcellulose (HPMC) 4000. Excess amount of the drug was added to the aqueous solution and the suspension formed was heated in a sealed container in an autoclave (120-140° C. for 20-40 minutes). After equilibration at room temperature (22-23° C.) for seven days, the suspension was filtered through a 0.45 μm membrane filter, diluted with aqueous methanolic solution and the amount of dissolved midazolam determined by a high pressure liquid chromatographic method (HPLC). FIG. 3 illustrates the effect of pH (i.e. the ring-opening) on the solubility of midazolam (pKa 6.2) in pure aqueous buffer solutions (●), aqueous buffer solutions containing 10% (w/v) HPβCD (▪), and aqueous buffer solutions containing both 10% (w/v) HPβCD and 0.10% (w/v) HPMC (♦) at room temperature.
# [3] = Solubility of midazolam versus pH with cyclodextrins and 10% (v/v) acetic acid; format: physicochemical
# Procedure: Excess amount of the drug was added to the aqueous HPβCD solution and the suspension formed was heated in a sealed container in an autoclave (120-140° C. for 20-40 minutes). After equilibration at room temperature (22-23° C.) for seven days, the suspension was filtered through a 0.45 μm membrane filter, diluted with aqueous methanolic solution and the amount of dissolved midazolam determined by a high pressure liquid chromatographic method (HPLC). FIG. 4 illustrates the effects of cyclodextrins, pH and 10% (v/v) acetic acid on the solubility of midazolam in aqueous solutions: pure aqueous buffer solution (▴); aqueous 10% (v/v) acetate solution (●); 10% (w/v) HPβCD solution containing 0.10% (w/v) HPMC in aqueous 10% (v/v) acetic acid solution (▪); 10% (w/v) aqueous SBEβCD solution in aqueous 10% (v/v) acetate (♦).
# [4] = First-order rate constant of diazepine ring-closure (regeneration of the benzodiazepine); format: physicochemical; conditions: pH 7.5, 37° C.
# Procedure: The effect of cyclodextrins and organic solvents on the rate of diazepine ring-closure of several selected benzodiazepines was investigated. Stock solutions containing 1.0×10^−3 M of the benzodiazepine in 0.10 M aqueous hydrochloric acid solution (pH approx. 1.1) were prepared and stored at 37.0° C. The benzodiazepines were in the ring-open form in these stock solutions. Aqueous 0.50 M tris buffer (pH 7.50) solution was prepared. The observed first-order rate constant for the closing (i.e. formation) of the benzodiazepine ring was determined in the following reaction media: a) pure aqueous tris buffer solution; b) aqueous tris buffer solution containing 10% (w/v) cyclodextrin; c) tris buffer solution containing 10% (w/v) cyclodextrin and 10% (v/v) ethanol (EtOH); d) tris buffer solution containing 10% (w/v) cyclodextrin and 50% (v/v) EtOH; e) tris buffer solution containing 10% (w/v) cyclodextrin and 10% (v/v) dimethylsulfoxide (DMSO); and f) tris buffer solution containing 10% (w/v) cyclodextrin and 50% (w/v) DMSO. The stock solution (30 μl) was added to 1.50 ml of the reaction media which had previously been equilibrated to 37.0° C. and the first-order rate constant for the appearance of the closed form determined from the appearance of the closed form as observed on HPLC. Tables 5, 6 and 7 show the effects of cyclodextrins, EtOH and DMSO on the observed first-order rate constant for the regeneration of alprazolam, triazolam and midazolam, respectively. In pure aqueous buffer solutions, addition of EtOH and DMSO decreases somewhat the rate of ring closure, at least in the case of alprazolam and midazolam. Addition of cyclodextrin or the organic solvents have insignificant effect on the pH under these conditions. The dielectric constant of the reaction medium will, however, decrease upon addition of the organic solvents. It is possible that this decrease in the dielectric constant will reduce the ability of the reaction media to stabilize the transition state which could explain the decrease in the observed rate constant. […] The cyclodextrins formed stable complexes with the ring-open form of the drug and, thus, the rate decreased upon addition of cyclodextrin. […] EtOH and DMSO will compete with the diazepine ring-open form for a space in the cyclodextrin cavity resulting in decreased complexation.
# [5] = format: physicochemical
# Source text: It is possible to enhance the cyclodextrin (CD) complexation efficacy, or efficiency, of drugs (D), and other “guest” molecules, by either increasing the apparent stability constant (KC) of the drug-cyclodextrin complex (D-CD) or increasing the apparent intrinsic solubility (S0) of the drug. For example, KC can be increased by addition of water-soluble polymers to the aqueous complexation media and S0 can be increased by ionization of the drug molecule, as described previously. […] On the other hand, if the drug-cyclodextrin complexes are prepared under conditions which ensure enhanced complexation and if the complexation efficiency decreases upon administration, then enhanced drug availability will be observed. Thus, the present invention involves: i) enhancement of the complexation efficiency and ii) reduction of the complexation efficiency after administration. For example, it is possible to enhance the complexation efficiency of many ionizable drugs by preparing the complexes at a pH where the drug is ionized but obtain decreased efficiency upon administration due to pH changes and consequent decreased ionization. One example of such a drug is phenytoin (pKa 8.1). […]
# [6] = cited from earlier work; for solubility in water: room temperature (25° C.)
# [7] = cited from earlier work
smiles,measurement,setting,value
"Cc1ncc2n1-c1ccc(Cl)cc1C(c1ccccc1F)=NC2 [midazolam, 8-chloro-6-(2-fluorophenyl)-1-methyl-4H-imidazo[1,5-a][1,4]benzodiazepine]",Fraction open,"[1]; 10% (w/v) HPβCD, pH 2, approx. 23° C.",0.56
same,Fraction open,"[1]; 10% (w/v) HPβCD, pH 3, approx. 23° C.",0.18
same,Fraction open,"[1]; 10% (w/v) HPβCD, pH 4, approx. 23° C.",0.23
same,Fraction open,"[1]; 10% (w/v) SBEβCD, pH 2, approx. 23° C.",0.81
same,Fraction open,"[1]; 10% (w/v) SBEβCD, pH 3, approx. 23° C.",0.39
same,Fraction open,"[1]; 10% (w/v) SBEβCD, pH 4, approx. 23° C.",0.11
same,Fraction open,"[1]; 10% (w/v) αCD, pH 2, approx. 23° C.",0.79
same,Fraction open,"[1]; 10% (w/v) αCD, pH 3, approx. 23° C.",0.32
same,Fraction open,"[1]; 10% (w/v) αCD, pH 4, approx. 23° C.",0.10
same,Fraction open,"[1]; 10% (w/v) γCD, pH 2, approx. 23° C.",0.61
same,Fraction open,"[1]; 10% (w/v) γCD, pH 3, approx. 23° C.",0.21
same,Fraction open,"[1]; 10% (w/v) γCD, pH 4, approx. 23° C.",0.17
same,Fraction open,"[1]; no cyclodextrin, pH 2, approx. 23° C.",0.74
same,Fraction open,"[1]; no cyclodextrin, pH 3, approx. 23° C.",0.28
same,Fraction open,"[1]; no cyclodextrin, pH 4, approx. 23° C.",0.18
same,effect of addition of HPMC on complexation efficiency,[2],significantly improves
same,effect of 10% (v/v) acetic acid co-solvent on fraction of the open ring form,[3],small decrease
same,effect of addition of 10% (v/v) acetic acid on complexation,"[3]; cyclodextrin solutions, FIG. 4",significantly improves
same,"observed first-order rate constant, ring formation","[4]; 10% HPβCD, 10% DMSO",0.0336 min⁻¹
same,"observed first-order rate constant, ring formation","[4]; 10% HPβCD, 10% EtOH",0.0386 min⁻¹
same,"observed first-order rate constant, ring formation","[4]; 10% HPβCD, 50% DMSO",0.084 min⁻¹
same,"observed first-order rate constant, ring formation","[4]; 10% HPβCD, 50% EtOH",0.0653 min⁻¹
same,"observed first-order rate constant, ring formation","[4]; 10% HPβCD, pure water",0.0277 min⁻¹
same,"observed first-order rate constant, ring formation","[4]; 10% RMβCD, 10% DMSO",0.0494 min⁻¹
same,"observed first-order rate constant, ring formation","[4]; 10% RMβCD, 10% EtOH",0.0424 min⁻¹
same,"observed first-order rate constant, ring formation","[4]; 10% RMβCD, 50% DMSO",0.0848 min⁻¹
same,"observed first-order rate constant, ring formation","[4]; 10% RMβCD, 50% EtOH",0.0699 min⁻¹
same,"observed first-order rate constant, ring formation","[4]; 10% RMβCD, pure water",0.0305 min⁻¹
same,"observed first-order rate constant, ring formation","[4]; 10% SBEβCD, 10% DMSO",0.0224 min⁻¹
same,"observed first-order rate constant, ring formation","[4]; 10% SBEβCD, 10% EtOH",0.033 min⁻¹
same,"observed first-order rate constant, ring formation","[4]; 10% SBEβCD, 50% DMSO",0.0855 min⁻¹
same,"observed first-order rate constant, ring formation","[4]; 10% SBEβCD, 50% EtOH",0.065 min⁻¹
same,"observed first-order rate constant, ring formation","[4]; 10% SBEβCD, pure water",0.013 min⁻¹
same,"observed first-order rate constant, ring formation","[4]; No CD, 10% DMSO",0.138 min⁻¹
same,"observed first-order rate constant, ring formation","[4]; No CD, 10% EtOH",0.126 min⁻¹
same,"observed first-order rate constant, ring formation","[4]; No CD, 50% DMSO",0.109 min⁻¹
same,"observed first-order rate constant, ring formation","[4]; No CD, 50% EtOH",0.0841 min⁻¹
same,"observed first-order rate constant, ring formation","[4]; No CD, pure water",0.179 min⁻¹
"O=C1NC(=O)C(c2ccccc2)(c2ccccc2)N1 [phenytoin, 5,5-diphenyl-2,4-imidazolidinedione]",solubility enhancement by 25% (w/v) 2-hydroxypropyl-β-cyclodextrin,[5]; pH 5,280 fold
same,solubility enhancement by 25% (w/v) 2-hydroxypropyl-β-cyclodextrin,[5]; pH 8,200 fold
same,solubility with 25% (w/v) 2-hydroxypropyl-β-cyclodextrin,[6]; pH 5,5000 µg/mL
same,solubility with 25% (w/v) 2-hydroxypropyl-β-cyclodextrin,[6]; pH 8,6400 µg/mL
same,solubility in water,[6]; pH 5,18 µg/mL
same,solubility in water,[6]; pH 8,32 µg/mL
same,pKa,[7],8.1
